# Measured values reported in the supplement of paper PMC11061612.
# Columns and labels:
# Assay in all cases: Bliss excess, mean over the matrix (fraction); higher = more synergy
# [1] = test system: 697 (B-Lymphoblastic Leukemia)
# Summary of the method: (§1)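 After 24 hours at 37°C and 5% CO2 in 1536-well plates, cells in DMEM/F12 or RPMI plus 10% FBS received two-drug dose matrices for 72 hours. Viability came from CellTiter-Glo 2.0 luminescence and was scaled as inhibition, anchored at 0 by vehicle wells and at 1 by blank wells. Combination Emax is taken as the second-highest inhibition in the matrix, and Bliss excess as the observed combination effect less EA + EB − EA·EB, with EA and EB the single-agent effects.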
# [2] = test system: C3A (Hepatocellular Carcinoma)
# Summary of the method: as §1
# [3] = test system: DB (B-Cell Non-Hodgkin's Lymphoma)
# Summary of the method: as §1
# [4] = test system: DOV13 (Ovarian Carcinoma)
# Summary of the method: as §1
# DSH1 (Bladder Carcinoma) = test system: DSH1 (Bladder Carcinoma)
# Summary of the method: as §1
# [5] = test system: EM-2 (Chronic Myelogenous Leukemia)
# Summary of the method: as §1
# ES7 (Ewing's Sarcoma) = test system: ES7 (Ewing's Sarcoma)
# Summary of the method: as §1
# [6] = test system: G-292-Clone-A141B1 (Osteosarcoma)
# Summary of the method: as §1
# [7] = test system: HPAC (Pancreatic Carcinoma)
# Summary of the method: as §1
# [8] = test system: KARPAS-1106P (B-Cell Non-Hodgkin's Lymphoma)
# Summary of the method: as §1
# [9] = test system: KM-H2 (Hodgkin's Lymphoma)
# Summary of the method: as §1
# [10] = test system: MFH-ino (Other Solid Carcinomas)
# Summary of the method: as §1
# [11] = test system: NCI-H1299 (Non-Small Cell Lung Carcinoma)
# Summary of the method: as §1
# [12] = test system: NCI-H1781 (Lung Adenocarcinoma)
# Summary of the method: as §1
# NCI-H2595 (Mesothelioma) = test system: NCI-H2595 (Mesothelioma)
# Summary of the method: as §1
# [13] = test system: OCI-AML2 (Acute Myeloid Leukemia)
# Summary of the method: as §1
# RH-1 (Ewing's Sarcoma) = test system: RH-1 (Ewing's Sarcoma)
# Summary of the method: as §1
# SK-N-FI (Neuroblastoma) = test system: SK-N-FI (Neuroblastoma)
# Summary of the method: as §1
# SN12C (Kidney Carcinoma) = test system: SN12C (Kidney Carcinoma)
# Summary of the method: as §1
# [14] = test system: SW780 (Bladder Carcinoma)
# Summary of the method: as §1
SMILES,Bliss excess [1],Bliss excess [2],Bliss excess [3],Bliss excess [4],Bliss excess (DSH1 (Bladder Carcinoma)),Bliss excess [5],Bliss excess (ES7 (Ewing's Sarcoma)),Bliss excess [6],Bliss excess [7],Bliss excess [8],Bliss excess [9],Bliss excess [10],Bliss excess [11],Bliss excess [12],Bliss excess (NCI-H2595 (Mesothelioma)),Bliss excess [13],Bliss excess (RH-1 (Ewing's Sarcoma)),Bliss excess (SK-N-FI (Neuroblastoma)),Bliss excess (SN12C (Kidney Carcinoma)),Bliss excess [14]
"CN(C)CCCOc1ccc(-c2ccc3ncc4c(c3c2)n(C2CCOCC2)c(=O)n4C)cn1 [AZD0156] + C=CCn1c(=O)c2cnc(Nc3ccc(N4CCN(C)CC4)cc3)nc2n1-c1cccc(C(C)(C)O)n1 [AZD1775] (first compound max 1 µM, partner max 1 µM)",0.0183,-0.0866,-0.0119,-0.0523,0.0236,-0.0548,-0.0153,-0.0538,-0.0284,-0.0384,0.0303,-0.0954,-0.0179,-0.0014,-0.062,-0.0258,0.0329,-0.0308,-0.0717,-0.0311
"CN(C)CCCOc1ccc(-c2ccc3ncc4c(c3c2)n(C2CCOCC2)c(=O)n4C)cn1 [AZD0156] + CCN(CCO)CCCOc1ccc2c(Nc3cc(CC(=O)Nc4cccc(F)c4)[nH]n3)ncnc2c1 [AZD2811] (first compound max 1 µM, 7x7, partner max 1 µM)",-0.015,-0.0792,-0.0221,0.0385,0.0062,-0.0445,-0.0172,-0.0669,0.012,-0.0003,0.0446,-0.0453,-0.021,0.0374,-0.0334,0.0665,-0.0337,-0.0144,-0.0563,-0.0268
"CN(C)CCCOc1ccc(-c2ccc3ncc4c(c3c2)n(C2CCOCC2)c(=O)n4C)cn1 [AZD0156] + C[C@@H]1COCCN1C2=NC(=NC(=C2)C3(CC3)[S@](=N)(=O)C)C4=C5C=CNC5=NC=C4 [AZD6738] (first compound max 1 µM, 7x7, partner max 10 µM)",0.0085,0.0318,-0.0151,-0.0395,0.0773,0.0124,0.0225,-0.0091,0.067,0.0462,0.0658,-0.0591,0.0234,-0.0229,-0.0438,-0.051,0.0731,0.0055,-0.0795,-0.0372
"CN(C)CCCOc1ccc(-c2ccc3ncc4c(c3c2)n(C2CCOCC2)c(=O)n4C)cn1 [AZD0156] + O=C(c1cc(Cc2n[nH]c(=O)c3ccccc23)ccc1F)N1CCN(C(=O)C2CC2)CC1 [Olaparib] (first compound max 3 µM, partner max 3 µM)",0.186,-0.0171,0.149,0.0258,0.0328,0.0753,0.291,-0.0003,0.0152,0.0471,0.0575,-0.061,0.0495,0.0077,-0.0288,0.171,0.265,-0.0123,-0.0357,-0.0007
"C=CCn1c(=O)c2cnc(Nc3ccc(N4CCN(C)CC4)cc3)nc2n1-c1cccc(C(C)(C)O)n1 [AZD1775] + C1CN(CCC1(C(=O)N[C@@H](CCO)C2=CC=C(C=C2)Cl)N)C3=NC=NC4=C3C=CN4 [Capivasertib] (first compound max 3 µM, partner max 3 µM)",0.0337,-0.0262,-0.0264,0.0339,0.0495,-0.0724,,-0.0313,-0.0611,0.0135,0.0333,-0.0204,-0.0756,-0.096,-0.0787,-0.0405,-0.0509,-0.0442,-0.0516,0.0017
"C=CCn1c(=O)c2cnc(Nc3ccc(N4CCN(C)CC4)cc3)nc2n1-c1cccc(C(C)(C)O)n1 [AZD1775] + C[C@@H]1COCCN1C2=NC(=NC(=C2)C3(CC3)[S@](=N)(=O)C)C4=C5C=CNC5=NC=C4 [AZD6738] (first compound max 1 µM, partner max 10 µM)",0.047,-0.0104,-0.0023,0.0366,0.0201,0.0362,0.0753,-0.0665,0.0473,0.0072,0.0647,-0.0909,-0.0268,-0.0334,-0.0206,0.0349,0.0329,-0.0346,-0.0359,-0.0092
"C=CCn1c(=O)c2cnc(Nc3ccc(N4CCN(C)CC4)cc3)nc2n1-c1cccc(C(C)(C)O)n1 [AZD1775] + O=C(c1cc(Cc2n[nH]c(=O)c3ccccc23)ccc1F)N1CCN(C(=O)C2CC2)CC1 [Olaparib] (first compound max 1 µM, partner max 10 µM)",0.0782,-0.0179,-0.0788,-0.0389,-0.0534,-0.0243,-0.0453,0.0161,0.0077,-0.0513,0.0084,-0.0128,-0.0048,-0.0451,-0.0218,0.0249,0.044,-0.0569,-0.0136,-0.0262
"CCN(CCO)CCCOc1ccc2c(Nc3cc(CC(=O)Nc4cccc(F)c4)[nH]n3)ncnc2c1 [AZD2811] + C=CCn1c(=O)c2cnc(Nc3ccc(N4CCN(C)CC4)cc3)nc2n1-c1cccc(C(C)(C)O)n1 [AZD1775] (first compound max 1 µM, partner max 1 µM)",0.0164,-0.0279,0.0251,-0.0063,-0.0013,-0.0184,-0.0468,-0.0368,0.0048,-0.0241,0.0339,-0.0399,-0.024,0.0795,-0.0509,0.0077,-0.0163,-0.0452,-0.0698,0.0194
"CCN(CCO)CCCOc1ccc2c(Nc3cc(CC(=O)Nc4cccc(F)c4)[nH]n3)ncnc2c1 [AZD2811] + C[C@@H]1COCCN1C2=NC(=NC(=C2)C3(CC3)[S@](=N)(=O)C)C4=C5C=CNC5=NC=C4 [AZD6738] (first compound max 1 µM, 7x7, partner max 10 µM)",0.0013,-0.0117,-0.0302,-0.0619,0.02,-0.0433,-0.0482,-0.12,-0.0244,-0.0713,-0.0249,-0.0878,-0.0808,0.0216,-0.0491,-0.0145,-0.0414,-0.0625,-0.0641,-0.0262
"COc1nnc2ccc(N3CCC(c4ccc(OCCN5CCN(C)C(=O)[C@H]5C)cc4)CC3)nn12 [AZD5153] + CN(CC[C@H](CSC1=CC=CC=C1)NC2=C(C=C(C=C2)S(=O)(=O)NC(=O)C3=CC=C(C=C3)N4CCC(CC4)[C@H](C5=CC=CC=C5C6=CC=C(C=C6)Cl)O)S(=O)(=O)C(F)(F)F)CCO [AZD4320] (first compound max 1 µM, 7x7, partner max 1 µM)",-0.0709,0.0705,,,,-0.0442,,,0.0229,,-0.0319,,,-0.0212,,,-0.0001,,,-0.0091
"Cc1c2c(nn1C)CSCc1cc(n(C)n1)CSc1cc(c3ccccc3c1)OCCCc1c(C(=O)O)n(C)c3c-2c(Cl)ccc13 [AZD5991] + C[C@@H](Nc1cc(F)cc(F)c1)c1cc(C(=O)N(C)C)cc2c(=O)cc(N3CCOCC3)oc12 [AZD8186] (first compound max 1 µM, 7x7, partner max 3 µM)",-0.0743,-0.0375,-0.0287,0.0294,-0.0603,-0.0528,0.0995,-0.013,-0.0297,0.0154,-0.0338,-0.0452,-0.0181,0.0182,0.0369,-0.0721,,-0.024,-0.0725,0.0157
"Cc1nc(Nc2ncc(C(=O)Nc3c(C)cccc3Cl)s2)cc(N2CCN(CCO)CC2)n1 [Dasatinib] + CC(=O)Nc1cccc(-n2c(=O)n(C3CC3)c(=O)c3c(Nc4ccc(I)cc4F)n(C)c(=O)c(C)c32)c1 [Trametinib] (first compound max 2 µM, 7x7, partner max 1 µM)",-0.0461,-0.0059,-0.0005,0.0135,-0.0516,-0.0935,-0.0112,,0.039,0.122,-0.0367,-0.0838,0.035,-0.0355,-0.0413,0.0363,-0.0353,0.0118,-0.0254,0.0848
"CC(=O)c1c(C)c2cnc(Nc3ccc(N4CCNCC4)cn3)nc2n(C2CCCC2)c1=O [Palbociclib] + CN(CC[C@H](CSC1=CC=CC=C1)NC2=C(C=C(C=C2)S(=O)(=O)NC(=O)C3=CC=C(C=C3)N4CCC(CC4)[C@H](C5=CC=CC=C5C6=CC=C(C=C6)Cl)O)S(=O)(=O)C(F)(F)F)CCO [AZD4320] (first compound max 10 µM, 7x7, partner max 1 µM)",-0.0718,-0.0358,,,,-0.0899,,,-0.0765,,-0.0282,,,-0.0811,,,-0.0674,,,-0.136
"CCc1c2c(nc3ccc(O)cc13)-c1cc3c(c(=O)n1C2)COC(=O)[C@]3(O)CC [SN-38] + O=C(c1cc(Cc2n[nH]c(=O)c3ccccc23)ccc1F)N1CCN(C(=O)C2CC2)CC1 [Olaparib] (first compound max 0.3 µM, 7x7, partner max 10 µM)",0.0877,0.0041,0.0534,0.0456,0.0007,0.0606,0.112,-0.0332,-0.0031,-0.0008,,0.0254,0.129,0.0788,0.0184,0.0787,0.102,0.0478,0.0457,
"C[C@@H](c1ccc2nccn2c1)n1nnc2ncc(-c3cnn(C)c3)nc21 [Savolitinib] + CN(CC[C@H](CSC1=CC=CC=C1)NC2=C(C=C(C=C2)S(=O)(=O)NC(=O)C3=CC=C(C=C3)N4CCC(CC4)[C@H](C5=CC=CC=C5C6=CC=C(C=C6)Cl)O)S(=O)(=O)C(F)(F)F)CCO [AZD4320] (first compound max 1 µM, 7x7, partner max 1 µM)",-0.0412,-0.0604,,,,-0.0531,,,-0.0347,,-0.0267,,,-0.053,,,0.0096,,,-0.0468
